Test results from US20060040884A1, “Antisense oligonucleotides directed to genes regulated by trapoxin-induced HDAC inhibition” (priority 2001, published 2006).
Strand notation (5' to 3'): a small letter for the sugar, then the base; units joined by * are phosphorothioate-linked, units joined directly phosphodiester-linked; [ ] holds rarer units or linkages, { } end groups; capitals alone tell only the bases. e = 2'-O-(2-methoxyethyl) (MOE); [5mC] = 5-methylcytosine; d = 2'-deoxy (DNA)

Columns and labels:
RhoB = RhoB expression in H1299 cells transfected with antisense oligonucleotides (Western blot); format: cell-based, human; conditions: 400 nM oligonucleotide with LIPOFECTIN, harvested 72 h after first transfection
Protocol: (§1) H1299 cells are transfected with HDAC1 antisense oligonucleotides NAS 6887, HDAC1 mismatch oligonucleotide NAS 7618, luciferase antisense oligonucleotide NAS 5596, or mock transfected. The following are the sequences of the modified oligonucleotides:
modified such that “s” stands for phosphorothioate, upper case refers to 2′-H, lower case refers to 2′-O-methoxyethyl and “c” refers to 2′-methoxyethyl 5-methylcytidine. Transfection is performed using LIPOFECTIN (Life Technologies) as a carrier according to the manufacturer's instruction. The transfection mixture is prepared in OPTI-MEM (Life Technologies) containing 6 μl LIPOFECTIN per 400 nM oligonucleotide. Transfection is carried out for 4 h, and is repeated twice on two consecutive days. Cells are harvested 72 h after the first transfection. RNA and proteins are isolated using Trizol reagent (Life Technologies) according to the manufacturer's instruction. Traces of DNA are removed from RNA samples using DNA-free (Ambion, Austin, Tex.) according to the manufacturer's protocol. RNA concentration is measured on CytoFluor Multi-well plate reader (PerSeptive Biosystems, Framingham, Mass.) using RIBO GREEN RNA Quantification kit (Molecular Probes, Eugene, Oreg.). Real Time RT-PCR
To determine the effect of specific HDAC1 blockade on RhoB expression, antisense oligonucleotides against HDAC1 were used. Potent antisense oligonucleotides against HDAC1 as well as oligonucleotides with mismatched nucleotides were synthesized and transfected into H1299 cells as specifically disclosed herein and as described in Examples 6-9. […] RNA and protein were isolated from H1299 cells transfected with the HDAC1 antisense oligonucleotides (NAS 6887), the corresponding mismatch (NAS 7618) and the unrelated luciferase control oligonucleotide (NAS 5596), and were analysed by real time RT-PCR and Western blot for HDAC1 and RhoB expression level. […] In contrast, no effects on RhoB expression were found in cells transfected with the NAS 7618 and NAS 5596 oligonucleotides.

HDAC1 = HDAC1 expression in H1299 cells transfected with antisense oligonucleotides (real time RT-PCR, Western blot); format: cell-based, human
Protocol: as §1
modified such that “s” stands for phosphorothioate, upper case refers to 2′-H, lower case refers to 2′-O-methoxyethyl and “c” refers to 2′-methoxyethyl 5-methylcytidine. Transfection is performed using LIPOFECTIN (Life Technologies) as a carrier according to the manufacturer's instruction. The transfection mixture is prepared in OPTI-MEM (Life Technologies) containing 6 μl LIPOFECTIN per 400 nM oligonucleotide. Transfection is carried out for 4 h, and is repeated twice on two consecutive days. […] RNA concentration is measured on CytoFluor Multi-well plate reader (PerSeptive Biosystems, Framingham, Mass.) using RIBO GREEN RNA Quantification kit (Molecular Probes, Eugene, Oreg.). […]
To determine the effect of specific HDAC1 blockade on RhoB expression, antisense oligonucleotides against HDAC1 were used. […] RNA and protein were isolated from H1299 cells transfected with the HDAC1 antisense oligonucleotides (NAS 6887), the corresponding mismatch (NAS 7618) and the unrelated luciferase control oligonucleotide (NAS 5596), and were analysed by real time RT-PCR and Western blot for HDAC1 and RhoB expression level. […]

| Substance | RhoB expression (protein level) (RhoB) | Expression of HDAC1 (real time RT-PCR and Western blot) (HDAC1; H1299 cells, 400 nM oligonucleotide with LIPOFECTIN, harvested 72 h after first transfection) | Inhibition of HDAC1 mRNA level (HDAC1; transfected H1299 cells) |
| --- | --- | --- | --- |
| NAS 5596: luciferase antisense control oligonucleotide, SEQ ID NO 14: cct taCs CsTsGs CsTsAs Gsct ggc (antisense CCTTACCTGCTAGCTGGC; phosphorothioate modifications, chemistry not fully specified) | no effects |  |  |
| NAS 6887: HDAC1 antisense oligonucleotide, SEQ ID NO 12: gct gtAs CsTsCs CsGsAs Csat gtt (antisense eGe[5mC]eTeGeTdA*dC*dT*dC*dC*dG*dA*dC*eAeTeGeTeT) | significantly induced | efficiently blocked | very potent inhibition |
| NAS 7618: HDAC1 mismatch oligonucleotide, SEQ ID NO 13: gct ttAs CsGsCs CsTsAs Csag gtt (antisense GCTTTACGCCTACAGGTT; phosphorothioate modifications, chemistry not fully specified) | no effects |  |  |
